Active and inactive are the calls of the source. No rule for the calls is given here. Where a SMILES comes first, the peptide text is derived from it.
System: CCRIS mutagenicity, Ames/micronucleus/aberration tests
Test: CCRIS mutagenicity studies

SMILES: O=S(=O)(O)c1ccccc1
- mutagenic call (Test System: AMES SALMONELLA TYPHIMURIUM, Strain/Indicator: TA97, Metabolic Activation: HAMSTER, LIVER, S-9, AROCLOR 1254 (10 OR 30%), Method: PREINCUBATION): inactive; negative
- mutagenic call (Test System: AMES SALMONELLA TYPHIMURIUM, Strain/Indicator: TA97, Metabolic Activation: NONE, Method: PREINCUBATION): inactive; negative
- mutagenic call (Test System: AMES SALMONELLA TYPHIMURIUM, Strain/Indicator: TA97, Metabolic Activation: RAT, LIVER, S-9, AROCLOR 1254 (10 OR 30%), Method: PREINCUBATION): inactive; negative
- mutagenic call (Test System: AMES SALMONELLA TYPHIMURIUM, Strain/Indicator: TA98, Metabolic Activation: HAMSTER, LIVER, S-9, AROCLOR 1254 (10 OR 30%), Method: PREINCUBATION): inactive; negative
- mutagenic call (Test System: AMES SALMONELLA TYPHIMURIUM, Strain/Indicator: TA98, Metabolic Activation: NONE, Method: PREINCUBATION): inactive; negative
- mutagenic call (Test System: AMES SALMONELLA TYPHIMURIUM, Strain/Indicator: TA98, Metabolic Activation: RAT, LIVER, S-9, AROCLOR 1254 (10 OR 30%), Method: PREINCUBATION): inactive; negative
- mutagenic call (Test System: AMES SALMONELLA TYPHIMURIUM, Strain/Indicator: TA100, Metabolic Activation: HAMSTER, LIVER, S-9, AROCLOR 1254 (10 OR 30%), Method: PREINCUBATION): inactive; negative
- mutagenic call (Test System: AMES SALMONELLA TYPHIMURIUM, Strain/Indicator: TA100, Metabolic Activation: NONE, Method: PREINCUBATION): inactive; negative
- mutagenic call (Test System: AMES SALMONELLA TYPHIMURIUM, Strain/Indicator: TA100, Metabolic Activation: RAT, LIVER, S-9, AROCLOR 1254 (10 OR 30%), Method: PREINCUBATION): inactive; negative
- mutagenic call (Test System: AMES SALMONELLA TYPHIMURIUM, Strain/Indicator: TA1535, Metabolic Activation: HAMSTER, LIVER, S-9, AROCLOR 1254 (10 OR 30%), Method: PREINCUBATION): inactive; negative
- mutagenic call (Test System: AMES SALMONELLA TYPHIMURIUM, Strain/Indicator: TA1535, Metabolic Activation: NONE, Method: PREINCUBATION): inactive; negative
- mutagenic call (Test System: AMES SALMONELLA TYPHIMURIUM, Strain/Indicator: TA1535, Metabolic Activation: RAT, LIVER, S-9, AROCLOR 1254 (10 OR 30%), Method: PREINCUBATION): inactive; negative

SMILES: CC(Br)C(=O)NC(C)(C)C (stereo not drawn)
- mutagenic call (Test System: AMES SALMONELLA TYPHIMURIUM, Strain/Indicator: TA100, Metabolic Activation: NONE, Method: STANDARD PLATE): inactive; negative

SMILES: COC(=O)[C@H](Cc1ccccc1)NC(=O)[C@@H](N)CC(=O)O (H-Asp-Phe-OMe)
- mutagenic call (End Point: In vivo micronucleus, Test System: Bone marrow polychromatic erythrocytes, Species: Rat, Strain/Sex: F344/N, Male, Route: Oral): inactive; negative
- mutagenic call (End Point: In vivo micronucleus, Test System: Peripheral blood normochromatic erythrocytes, Species: Mouse, Strain/Sex: B6.129-Cdkn2atm1Rdp (N2) Cdkn2a deficient/Female, Route: Oral): inactive; negative
- mutagenic call (End Point: In vivo micronucleus, Test System: Peripheral blood normochromatic erythrocytes, Species: Mouse, Strain/Sex: B6.129-Cdkn2atm1Rdp (N2) Cdkn2a deficient/Male, Route: Oral): inactive; negative
- mutagenic call (End Point: In vivo micronucleus, Test System: Peripheral blood normochromatic erythrocytes, Species: Mouse, Strain/Sex: B6.129-Trp53tm1Brd (N5) p53 Haploinsufficient/Female, Route: Oral): active; positive (significant trend test and significant (p=0.0004) increase in frequenc
- mutagenic call (End Point: In vivo micronucleus, Test System: Peripheral blood normochromatic erythrocytes, Species: Mouse, Strain/Sex: B6.129-Trp53tm1Brd (N5) p53 Haploinsufficient/Male, Route: Oral): inactive; negative
- mutagenic call (End Point: In vivo micronucleus, Test System: Peripheral blood normochromatic erythrocytes, Species: Mouse, Strain/Sex: FVB Tg.Ac hemizygous/Female, Route: Oral): inactive; negative
- mutagenic call (End Point: In vivo micronucleus, Test System: Peripheral blood normochromatic erythrocytes, Species: Mouse, Strain/Sex: FVB Tg.Ac hemizygous/Male, Route: Oral): inactive; negative
- mutagenic call (Test System: Ames Salmonella typhimurium, Strain/Indicator: TA97, Metabolic Activation: Hamster, liver, S-9, Aroclor 1254, 10 and 30%, Method: Preincubation): inactive; negative
- mutagenic call (Test System: Ames Salmonella typhimurium, Strain/Indicator: TA97, Metabolic Activation: None, Method: Preincubation): inactive; negative
- mutagenic call (Test System: Ames Salmonella typhimurium, Strain/Indicator: TA97, Metabolic Activation: Rat, liver, S-9, Aroclor 1254 (10% or 30%), Method: Preincubation): active; positive in two trials with 30% s-9
- mutagenic call (Test System: Ames Salmonella typhimurium, Strain/Indicator: TA98, Metabolic Activation: Hamster, liver, S-9, Aroclor 1254, 10 and 30%, Method: Preincubation): inactive; negative
- mutagenic call (Test System: Ames Salmonella typhimurium, Strain/Indicator: TA98, Metabolic Activation: None, Method: Preincubation): inactive; negative
- mutagenic call (Test System: Ames Salmonella typhimurium, Strain/Indicator: TA98, Metabolic Activation: Rat, liver, S-9, Aroclor 1254, 10 and 30%, Method: Preincubation): inactive; negative
- mutagenic call (Test System: Ames Salmonella typhimurium, Strain/Indicator: TA100, Metabolic Activation: Hamster, liver, S-9, Aroclor 1254, 10 and 30%, Method: Preincubation): inactive; negative
- mutagenic call (Test System: Ames Salmonella typhimurium, Strain/Indicator: TA100, Metabolic Activation: None, Method: Preincubation): inactive; negative
- mutagenic call (Test System: Ames Salmonella typhimurium, Strain/Indicator: TA100, Metabolic Activation: Rat, liver, S-9, Aroclor 1254, 10 and 30%, Method: Preincubation): inactive; negative
- mutagenic call (Test System: Ames Salmonella typhimurium, Strain/Indicator: TA1535, Metabolic Activation: Hamster, Liver, S-9, Aroclor 1254, 10 and 30%, Method: Preincubation): inactive; negative
- mutagenic call (Test System: Ames Salmonella typhimurium, Strain/Indicator: TA1535, Metabolic Activation: None, Method: Preincubation): inactive; negative
- mutagenic call (Test System: Ames Salmonella typhimurium, Strain/Indicator: TA1535, Metabolic Activation: Rat, liver, S-9, Aroclor 1254, 10 and 30%, Method: Preincubation): inactive; negative
- mutagenic call (Test System: Ames Salmonella typhimurium, Strain/Indicator: TA1537, Metabolic Activation: Rat, liver, S-9, Aroclor 1254, 30%, Method: Preincubation): inactive; negative
